Laboratory results reported in the METLIN SMRT retention time set (Domingo-Almenara et al. 2019).

Experiment: gradient 5% acetonitrile 3 min, to 50% in 2 min, to 85% in 15 min, held 3 min, 100 µL/min
Settings: column: Zorbax Extend-C18 2.1 x 50 mm; eluents: water / acetonitrile, 0.1% formic acid
Method in brief: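 Pure standards were analyzed in mixtures of ~100 molecules using HPLC coupled to a quadrupole time-of-flight mass spectrometer, in both positive and negative ionization mode. Separation used a Zorbax Extend-C18 column (2.1 × 50 mm, 1.8 μm) at 100 μL/min, with water and acetonitrile each containing 0.1% formic acid. Dead and dwell volumes were 40 μL and 900 μL, and data were collected over 3 months. Retention time was read from computationally picked adduct peaks, each inspected manually.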

Row | RP-LC retention time [s] | SMILES
1 | 608 | COc1ccccc1N1CCN(CCNS(=O)(=O)c2ccc(F)c(C)c2)CC1
2 | 727 | O=C(c1ccc(-c2c(-c3ccc(F)cc3)ncn2C2CCCC2)o1)N1CCN(c2ncccn2)CC1
3 | 1090 | Cc1ccc(-c2noc(-c3nc(-c4ccncc4)no3)n2)cc1
4 | 993 | CCCN1N=C(C(=O)N2CCC(C)CC2)S(=O)(=O)c2ccc(C)cc21
5 | 1220 | Cc1sc(-c2cc(C(F)(F)F)on2)cc1S(=O)(=O)NCCc1ccc(Cl)cc1
6 | 908 | CCOC(=O)C1=C(C)NC2=C(C(=O)C(C(=O)OC)C(C)C2)C1c1cccc(OCC)c1 (centres undefined)
7 | 615 | COc1ccc(C(=O)N2CCC(c3cc(N)on3)CC2)cc1OC
8 | 722 | CN1c2ccccc2C(=O)NC12CCN(C(=O)NCc1cccc(F)c1)CC2
9 | 900 | CCOC(=O)c1ccc(NC(=O)C2CCCN2S(=O)(=O)c2cc(C(=O)OC)n(C)c2)cc1 (centres undefined)
10 | 941 | Cc1ccc(Cn2nc3c(S(=O)(=O)N4CCc5ccccc5C4)cccn3c2=O)cc1
11 | 1070 | COc1cc(Cl)ccc1-c1nc(C2CC(=O)N(c3ccc(C)cc3)C2)no1 (centres undefined)
12 | 700 | CCOc1ccc(NC(=O)c2cccc(N3CCNC(c4ccccc4)C3)n2)cc1 (centres undefined)
13 | 692 | CC(C)C(NC(=O)Cc1ccccc1F)C(=O)Nc1nc2ccccc2[nH]1 (centres undefined)
14 | 818 | CC(NC(=O)c1cc2n(n1)CCCC2)c1ccc(F)cc1 (centres undefined)
15 | 620 | Cc1nc2ccn(Cc3cccnc3)c(=O)c2cc1C(=O)NC1CCCCC1
16 | 913 | O=C(NC1CCN(c2cc(-c3ccc(Cl)cc3)[nH]n2)C1)c1ccc(Br)cc1 (centres undefined)
17 | 624 | CSCC(=O)N1CCC(C2CCN(C(C)=O)CC2)C1 (centres undefined)
18 | 992 | CCN1C(=O)COc2ccc(-c3noc(C4CC(=O)N(c5ccc(C)c(C)c5)C4)n3)cc21 (centres undefined)
19 | 652 | CCc1c(C2CCN(C(=O)c3ccnn3CC)CC2)noc1N
20 | 932 | COc1ccc(-c2ccnn2-c2ccc(SCC(=O)NC(C)C)nn2)cc1
21 | 611 | Cn1nc2ccc(S(=O)(=O)N3CCOCC3)cn2c1=O
22 | 1120 | Cc1ccsc1C(=O)N1CCN(c2ccc(-c3nc(C)c(C)s3)cn2)CC1
23 | 716 | Cc1cccc2nnc(N3CCN(C(=O)c4ccc(C(F)(F)F)cc4)CC3)n12

Row | RP-LC retention time [s] | SMILES
24 | 663 | COc1ccc(C(O)CN2CCN(c3ccc(C)cc3)CC2)cc1 (centres undefined)
25 | 892 | Cc1nc(OCC(=O)Nc2ccc(Cl)c(C(F)(F)F)c2)c2ccccc2n1
26 | 912 | Cc1ccccc1-n1ccn(Cc2nc(-c3ccc(Cl)cc3)no2)c(=O)c1=O
27 | 960 | COc1ccccc1NC(=O)CSc1nc2c(-c3ccccc3)csc2c(=O)n1C
28 | 669 | Cc1nc2cccnc2n1C1CCN(C(=O)Nc2ccc(Br)cc2)CC1
29 | 1190 | CCCN1C(=O)COc2ccc(-c3noc(COc4ccc(Cl)cc4)n3)cc21
30 | 1180 | CC(C)(C)c1csc(-c2csc(S(=O)(=O)Nc3ccccc3)c2)n1
31 | 1040 | O=C(CCn1c(=O)sc2ccccc21)N(Cc1ccccc1)Cc1ccccc1
32 | 867 | c1coc(-c2nc3ccccc3c3nnc(SCc4cn5ccccc5n4)n23)c1
33 | 670 | Cc1nn(-c2ccc(C(=O)NCCCN3CCCC3=O)cc2)c2c1C(=O)CC(C)(C)C2
34 | 936 | CCNc1nn2ccccc2c1/C=C(/C#N)C(=O)OCC
35 | 568 | CNC(=O)c1cc(C)nc2c(C)cc(C)cc12
36 | 603 | O=C(NCC1CCN(Cc2cccs2)CC1)C(=O)Nc1ccc(C(F)(F)F)cc1
37 | 598 | CC(C)CCn1c(CCCC(=O)N2CCC(C(N)=O)CC2)nc2cccnc21
38 | 971 | CCCNS(=O)(=O)c1cccc(-c2nnc(-c3ccc(C)cc3)o2)c1
39 | 779 | O=C(NC1CC1)C1(c2ccc(F)cc2)CC1
40 | 847 | Cc1nnc(C(=O)Nc2cccc(C(=O)NCCc3c[nH]c4ccc(Cl)cc34)c2)s1
41 | 659 | CC1CCCCC1NC(=O)C1(C)Cn2c(cc3occc32)C(=O)N1Cc1cccnc1 (centres undefined)
42 | 596 | Cc1cccc2c(C(N)=O)cc(=O)[nH]c12
43 | 876 | O=c1c(S(=O)(=O)N2CCCC2)cccn1Cc1ccc(Cl)cc1
44 | 802 | CC(C)Oc1ccc(CNC(=O)C2CCN(S(=O)(=O)c3cn(C(C)C)cn3)CC2)cc1
45 | 590 | CCC(=O)NCc1nc2c(n1CC)CN(S(=O)(=O)c1cc(C)ccc1C)CC2
46 | 630 | COc1ccc(CSc2ncn[nH]2)cc1

Row | RP-LC retention time [s] | SMILES
47 | 949 | Cc1ccc(-c2cc(C(=O)Nc3ccc4c(c3)CCC(=O)N4)c3ccccc3n2)cc1C
48 | 720 | N#Cc1ccc(C(=O)NCCn2c(C(F)(F)F)nc3cccnc32)cc1
49 | 764 | Cc1c(Cl)cccc1NC(=O)Cn1ccc2sccc2c1=O
50 | 1100 | COC(=O)C1=CN(C)c2cc(N3CCC(Cc4ccccc4)CC3)c(F)cc2S1(=O)=O
51 | 564 | O=C(O)C1CCCN(c2cn[nH]c(=O)c2)C1 (centres undefined)
52 | 781 | O=C(CSc1nnc(NC(=O)c2ccccc2C(F)(F)F)s1)NC1CCCCC1
53 | 613 | Cc1cccc(C(=O)Nc2c(C(=O)N3CCN(c4ccccn4)CC3)[nH]c3ccccc23)c1
54 | 801 | Cc1nc2ccn(Cc3cccs3)c(=O)c2cc1C(=O)NC1CCCCC1
55 | 590 | CCCn1c(=O)c2cc(C(=O)N3CCN(Cc4ccccc4)CC3)nn2c2ccccc21
56 | 790 | Cc1noc(-c2ccc(NC(=O)c3cc(=O)c4ccccc4o3)cc2)n1
57 | 922 | O=C(NC1CCCCCC1)c1ccc2ccnc(N3CCN(c4ccccc4)CC3)c2c1
58 | 805 | CCNc1ncnc2sc3c(c12)CCN(S(=O)(=O)c1ccccc1)C3
59 | 873 | COc1cccc(Cn2nc3n(CCC(=O)NC4CCCC4)c(=O)c4ccccc4n3c2=O)c1
60 | 648 | CC1C(=O)NCCN1C(=O)CSc1ccc(Cl)cc1 (centres undefined)
61 | 660 | O=C(Cn1ncc2c(N3CCN(c4ccccn4)CC3)ncnc21)Nc1ccc(OC(F)(F)F)cc1
62 | 958 | O=C(c1cccc(Br)c1)N1CCN(c2cc(-c3ccc(Cl)cc3)[nH]n2)CC1
63 | 1250 | CCn1nc2c(S(=O)(=O)N3CCN(c4ccc(F)cc4)CC3)cccn2c1=O
64 | 641 | COCC(=O)Nc1ccc2c(c1)CN(S(C)(=O)=O)CCO2
65 | 528 | CCN(CC)C(=O)c1cc2c(s1)CCC(C(=O)NCc1cccnc1)C2 (centres undefined)
66 | 1080 | COC(=O)c1cc(C)nc2c1c(=O)n(Cc1ccc(Cl)cc1)c(=O)n2C
67 | 1140 | COc1cccc(-c2ccc(=O)n(Cc3nc(-c4ccc(OC(C)C)cc4)no3)n2)c1
68 | 787 | O=C(NC1CC1)c1ccc(OCC2CCN(C(=O)Cc3ccc(F)cc3)CC2)cc1
69 | 1210 | Cc1nc2c(sc3nc(-c4ccccc4)ccc32)c(=O)n1CC(=O)NCc1ccc(Cl)cc1

Row | RP-LC retention time [s] | SMILES
70 | 691 | COc1ccc(CNC(=O)c2[nH]c3cc(C)sc3c2CN(C)C)c(OC)c1
71 | 713 | Cc1[nH]c(C(=O)N2CCC(CC(=O)NC(C)C)CC2)c(C)c1C(=O)OC(C)C
72 | 746 | CCN1CCCC1CNS(=O)(=O)c1ccccc1-c1nc(-c2ccc(C)cc2)no1 (centres undefined)
73 | 655 | O=C(NCc1[nH]nc2ccccc12)c1ccoc1
74 | 1300 | Cc1cccc(-c2nc(Cn3nnc(-c4nc(-c5cccc(Cl)c5)no4)c3C)c(C)o2)c1
75 | 756 | Cc1ccc(NC(=O)Cc2nnc(-c3cnccn3)o2)cc1Cl
76 | 625 | CN(C)c1ccc(C(=O)NCC(=O)Nc2nc3ccccc3[nH]2)cc1
77 | 1170 | Cc1ccc(-c2noc(Cn3c(=O)n(CCc4ccccc4)c(=O)c4sccc43)n2)cc1
78 | 1090 | Cc1ccc(-c2nnc(-c3ccc(Br)cc3)o2)cc1S(=O)(=O)N(C)C
79 | 862 | CN1C(=O)c2cc(S(=O)(=O)Nc3ccccc3)ccc2Oc2cccnc21
80 | 1070 | O=S(=O)(c1cc(F)ccc1F)N1CCc2nc(-c3ccccc3)ncc2C1
81 | 619 | Cc1nc(CCNC(=O)C(C)(C)C)no1
82 | 710 | COC1CCC12CCN(C(=O)C1CC1)CC2 (centres undefined)
83 | 1080 | CCn1nccc1-c1cccc(-c2noc(C3CC(=O)N(c4ccc(C)c(C)c4)C3)n2)c1 (centres undefined)
84 | 880 | COCCn1cc(C(=O)Nc2ccccc2F)c2nn(-c3ccccc3)c(=O)c-2c1
85 | 1240 | Cc1ccc(CNC(=O)Nc2ccc(-c3nc(-c4ccc(C)cc4C)co3)cc2)cc1
86 | 884 | COC(=O)c1cc2c(cc1NC(=O)c1cc(-c3cccnc3)nc3ccccc13)OCO2
87 | 966 | CCn1c(=O)c(N2CCC(C(=O)NCCc3c[nH]c4ccc(C)cc34)CC2)nc2ccccc21
88 | 1100 | Cc1ccc(C)c(N2CCN(C(=O)Cn3nc(C(=O)N4CCCCC4)c4ccccc43)CC2)c1
89 | 716 | Cn1c(C2CCN(C(=O)c3ccc(C(F)(F)F)s3)C2)nc2cccnc21 (centres undefined)
